{"source": "patent US20200397795A1", "about": "“PROPHYLACTIC TREATMENT OF VENOUS THROMBOEMBOLISM” (JANSSEN PHARMACEUTICALS, INC., priority 2019, published 2020)", "system": "venous thromboembolism (VTE) in patients hospitalized for acute medical illness", "test": "MAGELLAN (Study 1): efficacy of oral rivaroxaban 10 mg OD 35 days vs sc enoxaparin 40 mg OD 10 days then placebo", "assay_type": "in vivo", "protocol": "The objective of Study 1 (MAGELLAN or MAGELLAN Study) was to compare efficacy and safety of venous thromboembolism (VTE) prophylaxis with oral rivaroxaban 10 mg once daily administered for 35±4 days (hereafter referred to as 35 days or Day 35) to subcutaneous enoxaparin 40 mg once daily (OD) administered for 10±4 days (hereafter referred to as 10 days or Day 10) in men and women aged 40 years or above, who have been hospitalized for a medical illness.\nDiagnosis and main criteria for inclusion in Study 1 was men and women 40 years or above and at risk for VTE being hospitalized for acute medical illness conditions, including: heart failure (New York Heart Association [NYHA] class III or IV); active cancer (e.g., admitted for chemotherapy or for the treatment of a complication of active cancer); acute ischemic stroke; acute infectious and inflammatory diseases, including acute rheumatic diseases; and acute respiratory insufficiency. Also at least one additional risk factor for VTE, including: severe varicosis (varicosities); chronic venous insufficiency; history of cancer; history of deep vein thrombosis (DVT) or pulmonary embolism (PE); history of heart failure (NYHA class III or IV); thrombophilia (hereditary or acquired); recent major surgery (6-12 weeks); recent serious trauma (6-12 weeks); hormone replacement therapy; advanced age greater than or equal to 75 years; morbid obesity (body mass index (BMI) 35 kg/m^2 or higher); and acute infectious disease contributing to hospitalization.\nThe study was conducted in a prospective, randomized, double-blind, double dummy, active comparator-controlled, multicenter and multinational design. There were 8101 subjects were randomized at 556 study centers in 52 countries to one of the two treatment groups. Of the 8101 randomized subjects, 4050 were randomized to active rivaroxaban and 4051 were randomized to active enoxaparin.\nPrimary Endpoints: The primary efficacy variable was a composite of the number of events of: asymptomatic proximal DVT in lower extremity detected by mandatory bilateral lower extremity venous ultrasonography; symptomatic DVT in lower extremity, proximal or distal; symptomatic, non-fatal PE; and VTE-related death defined as either a well-documented fatal PE, or sudden death with no other plausible explanation. The two primary efficacy endpoints were (i) test of superiority at Day 35 (Days 29-41, inclusive) and (ii) test of non-inferiority at Day 10 (Days 6-15, inclusive).\nSecondary Endpoints: The first major secondary efficacy endpoint was defined as a composite of the test of superiority at Day 35 with component of VTE-related death substituted by all-cause mortality, up to Day 35. The second major efficacy secondary efficacy endpoint was the test for superiority at Day 10 using the same composite endpoint as the Day 10 non-inferiority test.\nFor both primary efficacy endpoints, the relative risk ratio (rivaroxaban/enoxaparin) with respect to the incidences of the primary efficacy endpoint was estimated based on a stratified estimator using Mantel-Haenszel weights (based on sample sizes by geographic region). The corresponding asymptotic 2-sided 95% confidence interval based on the approximation to the normal distribution was determined. Sensitivity analyses were performed for the primary efficacy endpoints.\nThe primary efficacy variable was a composite of the number of events of (1) asymptomatic proximal DVT in lower extremity detected by mandatory bilateral lower extremity venous ultrasonography; (2) symptomatic DVT in lower extremity, proximal or distal; (3) symptomatic, nonfatal PE; and (4) VTE-related death. […]", "key": {"[1]": {"conditions": "Day 10 + 5, PP Day 10 plus major and clinically relevant bleeds"}, "[2]": {"conditions": "Day 10 + 5, per protocol Day 10 analysis set"}, "[3]": {"conditions": "Day 10 + 5 up to Day 35 + 6, mITT (Day 10 to Day 35) analysis set"}, "[4]": {"conditions": "Day 10 + 5 up to Day 35 + 6, mITT (Day 10 to Day 35) analysis set, listed as enoxaparin"}, "[5]": {"conditions": "Day 35 + 6, mITT Day 35 analysis set"}, "[6]": {"conditions": "Day 35 + 6, mITT Day 35 analysis set, listed as enoxaparin"}, "[7]": {"conditions": "Day 35 + 6, mITT Day 35 plus major and clinically relevant bleeds"}}}
{"substance": "Enoxaparin", "values": [{"measurement": "Major vascular events (CV death, acute myocardial infarction, or acute ischemic stroke), incidence", "setting": "Day 10", "result": 1.0, "unit": "%"}, {"measurement": "Symptomatic VTE excluding VTE-related death, incidence", "setting": "Day 10", "result": 0.3, "unit": "%"}, {"measurement": "Symptomatic VTE including death, incidence", "setting": "Day 10", "result": 0.6, "unit": "%"}, {"measurement": "Net clinical benefit component: asymptomatic lower proximal deep vein thrombosis", "setting": "[1]", "result": "71 (2.4%)"}, {"measurement": "Net clinical benefit component: clinically relevant non-major bleeding", "setting": "[1]", "result": "32 (1.1%)"}, {"measurement": "Net clinical benefit component: death (pulmonary embolism)", "setting": "[1]", "result": "6 (0.2%)"}, {"measurement": "Net clinical benefit component: major bleeding", "setting": "[1]", "result": "4 (0.1%)"}, {"measurement": "Net clinical benefit component: symptomatic deep vein thrombosis in lower extremity", "setting": "[1]", "result": "6 (0.2%)"}, {"measurement": "Net clinical benefit component: symptomatic non-fatal pulmonary embolism", "setting": "[1]", "result": "2 (<0.1%)"}, {"measurement": "Net clinical benefit component: venous thromboembolism related death", "setting": "[1]", "result": "6 (0.2%)"}, {"measurement": "Net clinical benefit, any event, incidence", "setting": "[1]", "result": "118 (3.9%)"}, {"measurement": "Net clinical benefit, any event, incidence", "setting": "Day 10 + 5, PP Day 10 plus major and clinically relevant bleeds, listed as enoxaparin", "result": 3.9, "unit": "%"}, {"measurement": "Asymptomatic proximal deep vein thrombosis in lower extremity, incidence", "setting": "[2]", "result": "71 (2.4%)"}, {"measurement": "Death (pulmonary embolism cannot be excluded), incidence", "setting": "[2]", "result": "6 (0.2%)"}, {"measurement": "Primary efficacy composite, any event, incidence", "setting": "[2]", "result": "82 (2.7%)"}, {"measurement": "Symptomatic deep vein thrombosis in lower extremity, incidence", "setting": "[2]", "result": "6 (0.2%)"}, {"measurement": "Symptomatic non-fatal pulmonary embolism, incidence", "setting": "[2]", "result": "2 (<0.1%)"}, {"measurement": "Venous thromboembolism related death, incidence", "setting": "[2]", "result": "6 (0.2%)"}, {"measurement": "Primary efficacy composite, any event, incidence", "setting": "Day 10 + 5, per protocol Day 10 analysis set, listed as enoxaparin", "result": 2.7, "unit": "%"}, {"measurement": "Asymptomatic proximal deep vein thrombosis in lower extremity, incidence", "setting": "[3]", "result": "89 (2.9%)"}, {"measurement": "Death (pulmonary embolism cannot be excluded), incidence", "setting": "[3]", "result": "15 (0.5%)"}, {"measurement": "Death (pulmonary embolism), incidence", "setting": "[3]", "result": 0, "unit": "%"}, {"measurement": "Symptomatic deep vein thrombosis in lower extremity, incidence", "setting": "[3]", "result": "7 (0.2%)"}, {"measurement": "Symptomatic non-fatal pulmonary embolism, incidence", "setting": "[3]", "result": "10 (0.3%)"}, {"measurement": "Venous thromboembolism related death, incidence", "setting": "[3]", "result": "15 (0.5%)"}, {"measurement": "Primary efficacy composite, any event, incidence", "setting": "Day 10 + 5 up to Day 35 + 6, mITT (Day 10 to Day 35) analysis set, rivaroxaban-placebo phase", "result": "114 (3.8%)"}, {"measurement": "Primary efficacy composite, any event, incidence", "setting": "Day 10 + 5 up to Day 35 + 6, mITT (Day 10 to Day 35) analysis set, rivaroxaban-placebo phase, listed as enoxaparin", "result": 3.8, "unit": "%"}, {"measurement": "Asymptomatic proximal deep vein thrombosis in lower extremity, incidence", "setting": "[4]", "result": 2.9, "unit": "%"}, {"measurement": "Venous thromboembolism related death, incidence", "setting": "[4]", "result": 0.5, "unit": "%"}, {"measurement": "Major vascular events, incidence", "setting": "Day 35", "result": 1.6, "unit": "%"}, {"measurement": "Symptomatic VTE excluding VTE-related death, incidence", "setting": "Day 35", "result": 0.7, "unit": "%"}, {"measurement": "Symptomatic VTE including death, incidence", "setting": "Day 35", "result": 1.4, "unit": "%"}, {"measurement": "Asymptomatic proximal deep vein thrombosis in lower extremity, incidence", "setting": "[5]", "result": "133 (4.4%)"}, {"measurement": "Death (pulmonary embolism cannot be excluded), incidence", "setting": "[5]", "result": "29 (0.9%)"}, {"measurement": "Death (pulmonary embolism), incidence", "setting": "[5]", "result": "1 (<0.1%)"}, {"measurement": "Primary efficacy composite, any event, incidence", "setting": "[5]", "result": "175 (5.7%)"}, {"measurement": "Symptomatic deep vein thrombosis in lower extremity, incidence", "setting": "[5]", "result": "15 (0.5%)"}, {"measurement": "Symptomatic non-fatal pulmonary embolism, incidence", "setting": "[5]", "result": "14 (0.5%)"}, {"measurement": "Venous thromboembolism related death, incidence", "setting": "[5]", "result": "30 (1.0%)"}, {"measurement": "Asymptomatic proximal deep vein thrombosis in lower extremity, incidence", "setting": "[6]", "result": 4.4, "unit": "%"}, {"measurement": "Primary efficacy composite, any event, incidence", "setting": "[6]", "result": 5.7, "unit": "%"}, {"measurement": "Venous thromboembolism related death, incidence", "setting": "[6]", "result": 1.0, "unit": "%"}, {"measurement": "Net clinical benefit component: asymptomatic lower proximal deep vein thrombosis", "setting": "[7]", "result": "133 (4.3%)"}, {"measurement": "Net clinical benefit component: clinically relevant non-major bleeding", "setting": "[7]", "result": "52 (1.7%)"}, {"measurement": "Net clinical benefit component: death (pulmonary embolism cannot be excluded)", "setting": "[7]", "result": "29 (0.9%)"}, {"measurement": "Net clinical benefit component: death (pulmonary embolism)", "setting": "[7]", "result": "1 (<0.1%)"}, {"measurement": "Net clinical benefit component: major bleeding", "setting": "[7]", "result": "15 (0.5%)"}, {"measurement": "Net clinical benefit component: symptomatic deep vein thrombosis in lower extremity", "setting": "[7]", "result": "15 (0.5%)"}, {"measurement": "Net clinical benefit component: symptomatic non-fatal pulmonary embolism", "setting": "[7]", "result": "14 (0.5%)"}, {"measurement": "Net clinical benefit component: venous thromboembolism related death", "setting": "[7]", "result": "30 (1.0%)"}, {"measurement": "Net clinical benefit, any event, incidence", "setting": "[7]", "result": "240 (7.8%)"}, {"measurement": "Net clinical benefit, any event, incidence", "setting": "Day 35 + 6, mITT Day 35 plus major and clinically relevant bleeds, listed as enoxaparin", "result": 7.8, "unit": "%"}, {"measurement": "Composite endpoint including all-cause mortality, incidence", "setting": "Day 35, mITT Day 35 expanded", "result": 9.2, "unit": "%"}, {"measurement": "All-cause mortality, incidence", "setting": "Day 90", "result": 6.2, "unit": "%"}, {"measurement": "Major vascular events, incidence", "setting": "Day 90", "result": 2.8, "unit": "%"}, {"measurement": "Symptomatic VTE excluding VTE-related death, incidence", "setting": "Day 90", "result": 0.9, "unit": "%"}, {"measurement": "Symptomatic VTE including death, incidence", "setting": "Day 90", "result": 1.9, "unit": "%"}]}
